# Laboratory results reported in patent US20160113904A1, “SKIN CARE PRODUCTS COMPRISING SUBSTITUTED HYDROXYPROLINE WITH UNSATURATED FATTY ACIDS DERIVATIVES” (MEDWELL LABORATORIES LTD., priority 2013, published 2016).
# “Also recorded” adds a separate entry of the source.
# Key:
# Assay type in all cases: in vivo, human
# [1] = system: volunteers with psoriasis; test: Psoriasis trial: side effects; conditions: topical use for 4 weeks
# Source text: The participants were asked to keep a record of daily applications and to note any side effects resulting from product application.
# Volunteers were asked to keep a record and report any side effects, such as dryness, burning sensation, peeling of the skin, redness or any other visible changes, and report immediately to study director.
# [2] = system: healthy female volunteers; test: Anti wrinkle test: side effects; conditions: facial use for 4 weeks
# Source text: Volunteers were asked to report side effects, such as dryness, burning sensation, peeling of the skin, redness, etc. immediately to the study director.
# [3] = system: healthy female volunteers, crow's feet area around the eyes; test: Anti wrinkle test: silicone imprints, skin roughness
# Source text: (§1) Ten healthy female volunteers were included and completed the study.
# Silicon imprints were taken from the crow's feet area around the eyes at both treated and control sides at each time point.
# (§2) A cosmetic anti wrinkle product MW-001 was applied on half of the face for four weeks by each volunteer while the other half served as a control, without any product application during the whole test period.
# A computer program draws a realistic density three-dimensional image of the relief of the skin on a colour screen for a particular density of points selected for x and y axes and then the measurements data stored in the computer are processed and then evaluated.
# This analysis consists of the following steps:
# 1. Generation of a roughness profile from the surface relief by alignment and filtering. 2. Calculation of standardized roughness parameters DIN 4768 ff). […].
# A statistical comparison between the results at T0 and at T1 was made according to the Wilcoxon signed-ranks test, a very sensitive paired-samples non-parametric test for small groups with unknown distribution, where p<0.05 indicates a significant difference. The software used was SPSS 14.
# [4] = system: healthy female volunteers, facial skin; test: Anti wrinkle test: hydration level by Corneometer; conditions: face, treated area
# Method: as §1
# Moisture level of the skin (corneometry) and TEWL (Trans Epidermal Water Loss) were measured at each time point.
# as §2
# Hydration level was evaluated by Corneometer, Courage & Khazaka, CK. The probe of the corneometer was placed on the skin at a constant pressure and measurements of skin hydration were taken. Skin hydration was recorded at T0, T1 and T2. Each measurement was repeated three times, and the average of the repeated measurements was calculated and assembled in the test results. The room temperature and humidity were kept constant.
# The corneometry results are provided in arbitrary units.
# [5] = system: volunteers with Atopic dermatitis; test: Atopic dermatitis trial: side effects; conditions: topical product use
# Source text: The participants were asked to keep a record of the daily applications in a diary and to note any side effects resulting from the product application.
# In addition to keeping records of side effects, volunteers were asked to immediately report any side effects, such as dryness, burning sensation, peeling of the skin, redness, etc. to 1SR.
# [6] = system: volunteers with psoriasis; test: Psoriasis trial: erythema level by Mexameter; conditions: treated area
# Method: (§3) Fifteen volunteers aged 29-73 with psoriasis.
# (§4) Volunteers were instructed to apply the product only on one side of the body, on the worst affected area at least once a day, for 4 weeks, while the other side was defined as the control area and was not treated.
# Erythema level was evaluated by Mexameter, Courage & Khazaka, CK. The probe of the Mexameter was placed on the skin at a constant pressure find measurements of skin hydration were taken. Skin erythema level was recorded at baseline, after 2 weeks and after 4 weeks of treatment.
# (§5) A statistical comparison between T0 and the other two time-points (T1 and T2) and between the treated and the Control areas were made by paired sample t-test, while p<0.05 indicated a significant difference
# [7] = system: volunteers with Atopic dermatitis; test: Atopic dermatitis trial: transepidermal water loss (TEWL) by Tewameter; conditions: treated area
# Method: (§6) Ten volunteers aged 2-30 years participated in the trial. Four females and six males.
# (§7) Volunteers were instructed to apply the product only on one side of the body, on the worst affected area, while the other side was defined as the control area and was not treated. The tested material, a body lotion product, was applied 1-3 times a day for a period of 4 weeks.
# Transepidermal water loss (TEWL) was measured by Tewameter 300 TM, Courage & Khazaka, CK. TEWL was recorded at baseline and after one week and after two weeks of treatment. Room temperature and humidity were kept constant.
# (§8) A statistical comparison between T0 and the other two time-points (T1 and T2) and between the treated and the Control areas were made according to the Wilcoxon signed-ranks test, while p<0.05 indicated a significant difference
# [8] = system: volunteers with Atopic dermatitis; test: Atopic dermatitis trial: subjective pruritus intensity; conditions: for Change in Pruritus level / Pruritus level: treated area; for Pruritus level: scale 0-5
# Source text: as §6, §7
# The volunteers were asked to assess the pruritus intensity on a 0-5 scale at T0, T1 and T2. • 0=None • 1=Slight • 2=Moderate • 3=Severe • 4=Extreme • 5=Very Extreme
# as §8
# [9] = system: healthy female volunteers, facial wrinkles; test: Anti wrinkle test: volunteers' subjective assessment of wrinkles; conditions: treated side, scale 0-10
# Method: as §1
# A subjective assessment of facial wrinkles condition was performed by the volunteers at each time point.
# as §2
# The volunteers filled out a questionnaire after 2 and 4 weeks of application.
# The volunteers were asked to answer a questionnaire after four weeks of application, regarding the assessment of each of the tested products, and to evaluate the improvement of the skin beneath and at the side of the eye.
# [10] = system: volunteers with psoriasis; test: Psoriasis trial: subjective pruritus level; conditions: for Pruritus level: treated area, scale 0-5
# Source text: as §3, §4
# The volunteers were asked to assess the pruritus level on a 0-5 scale at T0, T1 and T2.
# as §5
structure (smiles),measurement,setting,value
CCC=CCC=CCC=CCC=CCC=CCC=CCCC(=O)N1CC(O)CC1C(=O)O (stereo in doubt) [MW-001],Side effects / safety,[1],No side effects were observed; also recorded: safe for use
same,Side effects / safety,[2],None of the volunteers reported of any side effects; also recorded: safe for use
same,Overall efficacy conclusion,[3]; rough and wrinkled skin,efficient for the treatment of rough and wrinkled skin
same,Decrease of skin roughness,"[3]; treated area, before versus after 2 weeks of use",10.8%
same,Decrease of skin roughness,"[3]; treated area, before versus after 4 weeks of use",19.5%
same,"Skin roughness improvement, statistical analysis","[3]; treated area, both T1 and T2, p<0.05",significant
same,Average hydration level,[4]; T0 baseline,60.9 arbitrary units
same,Average hydration level,[4]; T1 after 2 weeks of use,53.4 arbitrary units
same,Average hydration level,[4]; T2 after 4 weeks of use,53.5 arbitrary units
same,Side effects / safety,[5],None of the participants had side effects; also recorded: safe for use
same,Erythema level,[6]; T0 baseline,562.1
same,Erythema level,[6]; T1 after two weeks,517.5
same,Erythema level,[6]; T2 after four weeks,576.7
same,Change in TEWL level,[7]; Baseline,100%
same,TEWL level,[7]; T0 baseline,13.6 g/m2/h
same,TEWL level,[7]; T1 after one week,12.5 g/m2/h
same,TEWL level,[7]; T2 after two weeks,10.5 g/m2/h
same,Change in TEWL level,"[7]; Week 1, relative to baseline",92%
same,Change in TEWL level,"[7]; Week 2, relative to baseline",78%
same,"Pruritus level, statistical analysis of change","[8]; after 1 and 2 weeks of treatment, only at the treated area",decreased significantly
same,Change in Pruritus level,[8]; Baseline,100%
same,Pruritus level,[8]; T0 baseline,3.4
same,Pruritus level,[8]; T1 after one week,1.4
same,Pruritus level,[8]; T2 after two weeks,0.9
same,Change in Pruritus level,"[8]; Week 1, relative to baseline",41%
same,Change in Pruritus level,"[8]; Week 2, relative to baseline",26%
same,Volunteers' grading of improvement of wrinkle appearance,[9]; after 2 weeks of treatment,3.5
same,Volunteers' grading of wrinkle improvement around the eyes,[9]; after 2 weeks of treatment,3.5
same,Volunteers' grading of wrinkle improvement around the eyes,[9]; after 4 weeks of treatment,4.3
same,Volunteers' grading of improvement in wrinkles appearance,[9]; printed 'After 2 weeks of treatment' (second statement),4.6
same,"Pruritus level, statistical analysis of change","[10]; any of the sides, whole study period, p>0.05",No significant change
same,Pruritus level,[10]; T0 baseline,2.1
same,Pruritus level,[10]; T1 after two weeks,1.6
same,Pruritus level,[10]; T2 after four weeks,1.3
